Test results: ChEMBL document CHEMBL5505997, “Synthesis and biological evaluation of novel peptidomimetic inhibitors of the coronavirus 3C-like protease” (Eur J Med Chem, 2024)

Assays:
Huh-7 = assay: (§1) Cytotoxicity against human Huh-7 cells assessed as reduction in cell viability; type: toxicity, cell-based; settings: huh-7
Human coronavirus OC43 = assay: Antiviral activity against Human coronavirus OC43 infected in Vero cells assessed as reduction in viral yield preincubated with virus for 1 hr followed by washout and compound treatment and measured after 3 days by qRT-PCR analysis; type: functional, organism-based; settings: Betacoronavirus 1, Vero; for EC90: 72 h, time 3 day
[1] = Cytotoxicity against human PBMC cells assessed as reduction in cell viability; type: toxicity, cell-based
CCRF-CEM = assay: (§2) Cytotoxicity against human CEM cells assessed as reduction in cell viability; type: toxicity, cell-based; settings: ccrf-cem
SARS-CoV-2 [2] = assay: Antiviral activity against SARS-CoV-2 infected in Vero cells assessed as reduction in viral yield measured after 48 hrs by qRT-PCR analysis; type: functional, organism-based; settings: Severe acute respiratory syndrome coronavirus 2, Vero; for EC50: 48 h; for EC90: time 48 hrs
[3] = Cytotoxicity against African green monkey Vero cells assessed as reduction in cell viability; type: toxicity, cell-based; settings: chlorocebus sabaeus
[4] = as §1; type: toxicity, cell-based; settings: Huh-7 cells
SARS-CoV-2 [5] = assay: Antiviral activity against SARS-CoV-2 infected in human Caco-2 cells assessed as reduction in viral yield measured after 72 hrs by qRT-PCR analysis; type: functional, organism-based, Severe acute respiratory syndrome coronavirus 2; settings: for EC90: Severe acute respiratory syndrome coronavirus 2, Caco-2, time 72 hrs; for EC50: Severe acute respiratory syndrome coronavirus 2, Caco-2, 72 h
SARS-CoV-2 [6] = assay: Antiviral activity against wild type SARS-CoV-2 WA1 infected in HEK293T cells measured after 48 hrs by Nano-Glo luciferase assay; type: functional, organism-based; settings: Severe acute respiratory syndrome coronavirus 2, WA1, HEK-293T
SARS-CoV-2 [7] = assay: Antiviral activity against SARS-CoV-2 hCoV-19/USA/GA-EHC-2811C/2021 (Omicron B.1.1.529) infected in human Calu-3 cells assessed as reduction in viral yield measured after 48 hrs by qRT-PCR analysis; type: functional, organism-based; settings: Severe acute respiratory syndrome coronavirus 2, hCoV-19/USA/GA-EHC-2811C/2021 (Omicron B.1.1.529); for EC50: Calu-3, 48 h; for EC90: Calu-3, time 48 hrs
SARS-CoV-2 [8] = assay: Antiviral activity against SARS-CoV-2 hCoV-19/USA-WA1/2020 Washington strain infected in Normal human bronchial/tracheal epithelial cells cultured in air-liquid interface media assessed as reduction in viral yield pretreated with compound followed by viral infection for 4 hrs post washout and measured 3 days after virus removal by qRT-PCR analysis; type: functional, organism-based; settings: Severe acute respiratory syndrome coronavirus 2, hCoV-19/USA-WA1/2020 Washington, Epithelial cell
[9] = as §2; type: toxicity, cell-based, CCRF-CEM; settings: CEM (CCRF-CEM) cells
SARS-CoV-2 [10] = assay: Antiviral activity against SARS-CoV-2 infected in human Calu-3 cells assessed as reduction in viral yield measured after 72 hrs by qRT-PCR analysis; type: functional, organism-based, Severe acute respiratory syndrome coronavirus 2; settings: for EC90: Severe acute respiratory syndrome coronavirus 2, Calu-3, time 72 hrs
[11] = (§3) Cytotoxicity against human Caco-2 cells assessed as reduction in cell viability; type: toxicity, cell-based; settings: Caco-2 cells
SARS-CoV-2 [12] = assay: Antiviral activity against wild type SARS-CoV-2 Omicron BA.1 infected in HEK293T cells measured after 48 hrs by Nano-Glo luciferase assay; type: functional, organism-based; settings: Severe acute respiratory syndrome coronavirus 2, Omicron BA.1, HEK-293T
[13] = (§4) Cytotoxicity against human Calu-3 cells assessed as reduction in cell viability; type: toxicity, cell-based; settings: Calu-3 cells
[14] = Metabolic stability in human liver microsomes assessed as reduction in decay rate at 1 uM incubated for 90 mins in presence of ritonavir by LC-MS/MS analysis; type: ADME, Microsome; settings: 1.5 h
[15] = molecular target: Replicase polyprotein 1ab (Severe acute respiratory syndrome coronavirus 2) (UniProt P0DTD1); assay: Binding affinity to SARS-CoV-2 3CLpro assessed as thermal stabilization by measuring fold increase in melting temperature incubated for 60 mins by SYPRO orange dye based thermal shift assay relative to nirmatrelvir
[16] = molecular target: Replicase polyprotein 1ab (Severe acute respiratory syndrome coronavirus 2, UniProt P0DTD1); assay: (§5) Inhibition of amino-terminal His-SUMO tagged SARS-CoV-2 3CLpro using HilyteFluor 488-Glu-Ser-Ala-Thr-Leu-Gln-Ser-Gly-Leu-Arg-Lys-Ala-Lys-QXL 520 as FRET peptide substrate preincubated for 90 mins followed by substrate addition and measured over 30 mins by continuous FRET assay
[17] = Metabolic stability in human liver microsomes assessed as half life at 1 uM incubated for 90 mins in presence of ritonavir at 1:10 combination by LC-MS/MS analysis; type: ADME, Microsome; settings: 1.5 h
[18] = molecular target: Replicase polyprotein 1ab (Severe acute respiratory syndrome coronavirus 2) (UniProt P0DTD1); settings: time 60.0 min
[19] = Solubility of compound in PBS; type: physicochemical; settings: buffer
SARS-CoV-2 [20] = assay: Selectivity ratio of EC50 for antiviral activity against SARS-CoV-2 infected in Vero cells to EC50 for antiviral activity against SARS-CoV-2 infected in human Caco-2 cells; type: functional, Severe acute respiratory syndrome coronavirus 2
SARS-CoV-2 [21] = assay: Selectivity ratio of EC50 for antiviral activity against SARS-CoV-2 infected in Vero cells to EC50 for antiviral activity against SARS-CoV-2 infected in human Calu-3 cells; type: functional, Severe acute respiratory syndrome coronavirus 2
[22] = Metabolic stability in human liver microsomes assessed as half life at 1 uM measured after 0 to 90 mins by LC-MS/MS analysis; type: ADME, Microsome; settings: time 0-90 min
Caco-2 = assay: as §3; type: toxicity, cell-based; settings: caco-2
[23] = molecular target: Replicase polyprotein 1ab (Severe acute respiratory syndrome coronavirus 2) (UniProt P0DTD1); settings: time 60.0 min; remark: listed apart in the source
Calu-3 = assay: as §4; type: toxicity, cell-based; settings: calu-3
[24] = molecular target: Replicase polyprotein 1ab (Severe acute respiratory syndrome coronavirus 2) (UniProt P0DTD1); assay: as §5, with “Potency index, ratio of nirmatrelvir IC50 to test compound IC50 for inhibition” for “Inhibition”; settings: time > 120.0 min
[25] = Metabolic stability in human liver microsomes assessed as half life at 1 uM incubated for 90 mins in presence of ritonavir at 1:1 combination by LC-MS/MS analysis; type: ADME, Microsome; settings: 1.5 h

CCOC(=O)/C=C/[C@H](C[C@@H]1CCCNC1=O)NC(=O)[C@H](CC(C)C)NC(=O)[C@H](Cc1cccc2ccccc12)NC(=O)c1cc(C)on1
CC50 (Huh-7): 51.4 µM
EC50 (Human coronavirus OC43): 7.3 µM
EC90 (Human coronavirus OC43): 9.7 µM
CC50 ([1]; pbmc): > 100 µM
CC50 (CCRF-CEM): 33.4 µM
EC50 (SARS-CoV-2 [2]): > 10 µM
EC90 (SARS-CoV-2 [2]): > 10 µM
CC50 ([3]; vero): > 100 µM

CC(C)C[C@H](NC(=O)[C@H](Cc1cccc2ccccc12)NC(=O)c1cc(C(F)(F)F)on1)C(=O)N[C@H](C=O)C[C@@H]1CCCNC1=O
CC50 (Huh-7): 42.5 µM
EC50 (Human coronavirus OC43): 0.7 µM
EC90 (Human coronavirus OC43): 1 µM
CC50 ([1]; pbmc): 49.9 µM
CC50 (CCRF-CEM): 20.3 µM
EC50 (SARS-CoV-2 [2]): 6.1 µM
EC90 (SARS-CoV-2 [2]): 9.9 µM
CC50 ([3]; vero): 49.9 µM

CC(C)(C)[C@H](NC(=O)C(F)(F)F)C(=O)N1C[C@H]2[C@@H]([C@H]1C(=O)N[C@H](C#N)C[C@@H]1CCNC1=O)C2(C)C
CC50 [4]: > 100 µM
EC50 (Human coronavirus OC43): 0.2 µM
EC90 (Human coronavirus OC43): 0.3 µM
CC50 ([1]; PBMC cells): > 100 µM
EC90 (SARS-CoV-2 [5]): 0.3 µM
EC50 (SARS-CoV-2 [6]): 0.034 µM
EC50 (SARS-CoV-2 [7]): 0.7 µM
EC90 (SARS-CoV-2 [7]): 5.3 µM
EC50 (SARS-CoV-2 [8]): 0.03 µM
EC90 (SARS-CoV-2 [8]): 0.2 µM
CC50 [9]: > 100 µM
EC50 (SARS-CoV-2 [10]; Severe acute respiratory syndrome coronavirus 2, Calu-3, 72 h): 1.9 µM
EC90 (SARS-CoV-2 [10]): 7.6 µM
CC50 [11]: > 100 µM
EC50 (SARS-CoV-2 [2]): 3.7 µM
EC90 (SARS-CoV-2 [2]): 5.6 µM
EC50 (SARS-CoV-2 [12]): 0.11 µM
CC50 [13]: > 100 µM
CC50 ([3]; Vero cells): > 100 µM

Cc1cc(C(=O)N[C@@H](Cc2cccc3ccccc23)C(=O)N[C@@H](CC(C)C)C(=O)N[C@@H](C[C@@H]2CCCNC2=O)C(O)C(=O)NC2CC2)no1 (some centres undefined)
CC50 (Huh-7): > 100 µM
EC50 (Human coronavirus OC43): 36.7 µM
EC90 (Human coronavirus OC43): 87.4 µM
CC50 ([1]; pbmc): > 100 µM
CC50 (CCRF-CEM): > 100 µM
EC50 (SARS-CoV-2 [2]): > 10 µM
EC90 (SARS-CoV-2 [2]): > 10 µM
CC50 ([3]; vero): > 100 µM

Cc1cc(C(=O)N[C@@H](Cc2cccc3ccccc23)C(=O)N[C@@H](CC(C)C)C(=O)N[C@H](C=O)C[C@@H]2CCCNC2=O)no1
CC50 (Huh-7): 32.7 µM
EC50 (Human coronavirus OC43): 0.1 µM
EC90 (Human coronavirus OC43): 0.7 µM
CC50 ([1]; pbmc): 30.9 µM
Stability [14]: Stable
fold change (FC) [15]: 2
IC50 [16]: 0.166 µM
t1/2 [17]: > 1.5 h
EC50 (SARS-CoV-2 [5]): 0.1 µM
EC90 (SARS-CoV-2 [5]): 1.2 µM
ΔTm [18]: 13.9 °C
EC50 (SARS-CoV-2 [6]): 0.2 µM
EC50 (SARS-CoV-2 [7]): 1.1 µM
EC90 (SARS-CoV-2 [7]): 3.5 µM
EC50 (SARS-CoV-2 [8]): 0.6 µM
EC90 (SARS-CoV-2 [8]): 1.8 µM
solubility [19]: < 10 µg/mL
CC50 (CCRF-CEM): 13.9 µM
Ratio EC50 (SARS-CoV-2 [20]): 15
Ratio EC50 (SARS-CoV-2 [21]): 3
t1/2 [22]: < 5 min
EC90 (SARS-CoV-2 [10]): 4.3 µM
CC50 (Caco-2): > 100 µM
EC50 (SARS-CoV-2 [2]): 4.6 µM
EC90 (SARS-CoV-2 [2]): 9 µM
EC50 (SARS-CoV-2 [12]): 0.32 µM
Tm [23]: 69.9 °C
CC50 (Calu-3): > 100 µM
CC50 ([3]; vero): 84.3 µM
Ratio IC50 [24]: 2
t1/2 [25]: > 1.5 h

CC(C)C[C@H](NC(=O)[C@H](Cc1cccc2ccccc12)NC(=O)OCc1ccccc1)C(=O)N[C@H](C=O)C[C@@H]1CCCNC1=O
CC50 (Huh-7): 38.9 µM
EC50 (Human coronavirus OC43): 0.7 µM
EC90 (Human coronavirus OC43): 1 µM
CC50 ([1]; pbmc): 42.4 µM
CC50 (CCRF-CEM): 24.3 µM
EC50 (SARS-CoV-2 [2]): 2.6 µM
EC90 (SARS-CoV-2 [2]): 5.9 µM
CC50 ([3]; vero): > 100 µM

CC(C)C[C@H](NC(=O)[C@H](Cc1ccc(F)cc1)NC(=O)OCc1ccccc1)C(=O)N[C@H](C=O)C[C@@H]1CCCNC1=O
CC50 (Huh-7): > 100 µM
EC50 (Human coronavirus OC43): 0.8 µM
EC90 (Human coronavirus OC43): 2.6 µM
CC50 ([1]; pbmc): > 100 µM
CC50 (CCRF-CEM): > 100 µM
EC50 (SARS-CoV-2 [2]): 6.7 µM
EC90 (SARS-CoV-2 [2]): 7.4 µM
CC50 ([3]; vero): > 100 µM

CCC(CC)COC(=O)[C@H](C)N[P@](=O)(OC[C@H]1O[C@@](C#N)(c2ccc3c(N)ncnn23)[C@H](O)[C@@H]1O)Oc1ccccc1
CC50 (Huh-7): 1.4 µM
EC50 (Human coronavirus OC43): 0.01 µM
EC90 (Human coronavirus OC43): 0.03 µM
CC50 ([1]; pbmc): 4.9 µM
EC50 (SARS-CoV-2 [5]): 0.03 µM
EC90 (SARS-CoV-2 [5]): 0.2 µM
EC50 (SARS-CoV-2 [6]): 0.01 µM
EC50 (SARS-CoV-2 [7]): 0.2 µM
EC90 (SARS-CoV-2 [7]): 0.6 µM
EC50 (SARS-CoV-2 [8]): 0.5 µM
EC90 (SARS-CoV-2 [8]): 0.9 µM
CC50 (CCRF-CEM): 11.2 µM
EC90 (SARS-CoV-2 [10]): 0.7 µM
CC50 [11]: > 100 µM
EC50 (SARS-CoV-2 [2]): 3.2 µM
EC90 (SARS-CoV-2 [2]): 4.7 µM
EC50 (SARS-CoV-2 [12]): 0.014 µM
CC50 [13]: > 100 µM
CC50 ([3]; Vero cells): > 100 µM
